Measurements: patent EP0347802B1, “Neurokinin A antagonists” (MERRELL DOW PHARMACEUTICALS INC., priority 1988, dated 1989)
Residues, ends and D or L forms follow the SMILES beside them.

What was measured:
NKA receptor = biological target: T1, NKA receptor (Mesocricetus auratus, UniProt P51144); assay: Neurokinin A-induced phosphatidylinositol (PI) turnover in hamster urinary bladder; type: cell-based; conditions: for shift of NKA dose-response curve (PI turnover): one experiment in triplicate; for partial agonist activity: test compound alone
T1 construct: from tissue; host or cells: hamster urinary bladder, chopped tissue
T1 sequence (P51144 1-384): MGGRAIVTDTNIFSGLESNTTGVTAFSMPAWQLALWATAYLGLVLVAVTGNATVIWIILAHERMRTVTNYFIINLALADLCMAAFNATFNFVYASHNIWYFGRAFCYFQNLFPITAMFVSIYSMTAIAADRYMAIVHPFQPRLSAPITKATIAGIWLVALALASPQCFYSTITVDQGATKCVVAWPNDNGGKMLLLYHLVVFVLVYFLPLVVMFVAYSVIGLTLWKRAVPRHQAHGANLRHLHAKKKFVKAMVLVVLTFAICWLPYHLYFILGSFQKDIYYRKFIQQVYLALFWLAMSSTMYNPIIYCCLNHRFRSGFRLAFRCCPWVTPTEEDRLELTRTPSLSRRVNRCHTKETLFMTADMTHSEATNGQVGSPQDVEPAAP
Description: The abscissa (x-axis) logarithmically indicates the concentration in nanomoles of agonist or antagonist of the neurokinin A (NKA) receptor. […] The abscissa (x-axis) logarithmically indicates the concentration in nanomolar (nM) of agonist or antagonist of the NKA receptor. […] The abscissa (x-axis) logarithmically indicates the concentration in nanomolar (nM) of agonist or antagonist of the NKA receptor. […])]Leu-NH2 up to 100»M had only 5% partial agonist activity, and […] had only 12% partial agonist activity. […] Values are MEAN ± S.E.M. from one experiment in triplicate. Urinary bladders from several hamsters were pooled and chopped at 350 »m with a tissue chopper. The chopped tissue was then incubated in 37°C Krebs-Hepes buffer with fresh buffer changes every 15 minutes for 30 minutes. The tissue was then incubated in this buffer containing 100-200 »Ci of 3H-inositol at 37°C. The tissue was then washed and incubated for another 30 minutes in Krebs-Hepes (containing 10 mM Li+) at 37°C with fresh buffer change every 15 minutes. Portions of the tissue mass (approximately 10-20 mg per assay tube) were then placed in Li+ buffer, test compound was then added in 25 »l, and then various concentrations of neurokinin A were added in 25 »l in a final volume of 250 »l. […] Test compound was also evaluated alone at the indicated concentrations to test for agonist activity. After 30 minutes at room temperature, the phosphatidylinositol turnover was terminated by the addition of 940 »l chloroform:methanol (1:2), followed by 310 »l chloroform, followed by 310 »l water. Each tube was then vortexed for 15 seconds and then centrifuged at 3000 rpm for 10 minutes to separate the phases. 900 »l of the top (aqueous) phase was then loaded onto a 0.5 ml Biorad AG-1X8 (formate) ion exchange column. 50 »l of the bottom phase (chloroform) was withdrawn from each tube and placed in a counting vial, dried, and counted in scintillation fluid. The material on the columns was washed in order with: • 1) 10 ml of water • 2) 5 ml of 5 mM disodium tetraborate/60 mM sodium formate • 3) 10 ml of 1 M ammonium formate in 0.1 M formic acid The final (third) wash was collected and one ml was mixed with 6 ml of ACS scintillant and counted. The ratio of these counts (total inositol phosphates) to the corresponding organic phase counts was then calculated for each sample. The ratios in the presence of test compound and/or standards were then compared to the ratios for control tubes (i.e., no stimulating agonist). Dose-response curves were constructed and the abilities of test compounds to stimulate or to inhibit neurokinin A-induced phosphatidylinositol turnover were determined by graphical analysis or with the aid of a computer program and are illustrated in Figures 2 and 3.

hamster urinary bladder = assay: Hamster urinary bladder contraction preparation; parameters: species or system male golden Syrian hamsters; conditions: for effect on NKA-mediated contractile activity: NKA with 10 »M of test compound, one experiment in triplicate; for contraction produced by test compound alone: up to concentrations of 1 »M, three separate hamster bladder tissues each, thiorphan 10 »M
Description: The abscissa (x-axis) logarithmically indicates the concentration in nanomoles of agonist or antagonist of the neurokinin A (NKA) receptor. The ordinate (y-axis) indicates the observed specific binding for each tested agonist or antagonist measured as a percentage of maximum specific binding. [formula] Agonists tested were NKA and fragments of NKA consisting of the third to tenth (NKA(3-10)) amino acids and the fourth to tenth (NKA(4-10)) amino acids. Values are MEAN ± S.E.M. of 6 - 12 experiments. […] The abscissa (x-axis) logarithmically indicates the concentration in nanomolar (nM) of agonist or antagonist of the NKA receptor. […] The abscissa (x-axis) logarithmically indicates the concentration in nanomolar (nM) of agonist or antagonist of the NKA receptor. […] H-Asp-Ser-Phe-Val-Gly-Leuψ[CH₂N(CH₃)]Leu-NH₂ up to 100»M had only 5% partial agonist activity, and H-Asp-Ser-Phe-Val-Gly-Leuψ[CH₂NH]Leu-NH₂ had only 12% partial agonist activity. […] The abscissa (x-axis) logarithmically indicates the concentration in nanomolar (nM) of NKA or NKA with 10 »M of H-Asp-Ser-Phe-Val-Gly-Leuψ[CH₂NH]Leu-NH₂. […] The abscissa (x-axis) logarithmically indicates the concentration in nanomolar (nM) of NKA or NKA with 10 »M of H-Asp-Ser-Phe-Val-Gly-Leuψ[CH₂N(CH₃)]Leu-NH₂. Values are MEAN ± S.E.M. from one experiment in triplicate.
Half-strips of urinary bladders from male golden Syrian hamsters (75 - 100 g) were suspended in Tyrode's buffer at 31°C and with 1 gram resting tension as described by Dion et al. (Life Sciences 41: 2269 - 2278, 1987). The enkephalinase inhibitor thiorphan was added to the buffer at 10 »M 15 minutes prior to each test compound addition. Cumulative NKA dose-response curves were constructed first in the absence and then in the presence of test compound. The test compounds were added cumulatively as well to ascertain whether or not they had any contractile effects themselves. Any test compound effect that was observed was allowed to plateau before the next cumulative concentration was added. Under these conditions, the EC₅₀ for NKA contractile effects was generally 10 nM, in good agreement with literature values. Contractile data are expressed as grams of tension developed over and above the resting tension. […] Figures 4 and 5 illustrate the contractile force as a function of NKA concentration in the absence and presence of test compound.

CC(C)C[C@@H](CN[C@@H](CC(C)C)C(N)=O)NC(=O)CNC(=O)[C@@H](NC(=O)[C@H](Cc1ccccc1)NC(=O)[C@H](CO)NC(=O)[C@@H](N)CC(=O)O)C(C)C [H-Asp-Ser-Phe-Val-Gly-Leuψ[CH₂NH]Leu-NH₂] (HELM PEPTIDE1{D.S.F.V.G.[CC(C)C[C@@H](CN[C@@H](CC(C)C)C(N)=O)N[*:1]]}$$$$V2.0)
shift of NKA dose-response curve (PI turnover) (NKA receptor; 10 »M test compound): significant rightward shift of NKA dose-response curve in competitive manner
partial agonist activity (NKA receptor): 12%
effect on NKA-mediated contractile activity (hamster urinary bladder): antagonistic effect
contraction produced by test compound alone (hamster urinary bladder): did not produce any contraction

CC(C)C[C@@H](CN(C)[C@@H](CC(C)C)C(N)=O)NC(=O)CNC(=O)[C@@H](NC(=O)[C@H](Cc1ccccc1)NC(=O)[C@H](CO)NC(=O)[C@@H](N)CC(=O)O)C(C)C [H-Asp-Ser-Phe-Val-Gly-Leuψ[CH₂N(CH₃)]Leu-NH₂] (HELM PEPTIDE1{D.S.F.V.G.[CC(C)C[C@@H](CN(C)[C@@H](CC(C)C)C(N)=O)N[*:1]]}$$$$V2.0)
shift of NKA dose-response curve (PI turnover) (NKA receptor; 1, 10 and 100 »M test compound): significant rightward shift of NKA dose-response curve in competitive manner
Kb (NKA receptor; Schild plot of NKA dose-response shifts at 1, 10 and 100 »M, read-out: pA2 (converted)): 0.0219 µM
slope of the Schild plot (NKA receptor; from NKA dose-response shifts at 1, 10 and 100 »M): -.99
partial agonist activity (NKA receptor; up to 100»M): 5%
effect on NKA-mediated contractile activity (hamster urinary bladder): antagonistic effect
contraction produced by test compound alone (hamster urinary bladder): did not produce any contraction
